US20240239806A1, “COMPOUNDS, COMPOSITIONS AND METHODS OF TREATING DISORDERS” (Chengdu Anticancer Bioscience, Ltd., priority 2021, published 2024)
Where two headings read alike, the source gives them in different places.

What was measured:
Type in all cases: cell-based
HCT116 [1] = test: MECP in cancer cell line; details: Homo sapiens, HCT-116
Description: (§1) Six lung cancer cell lines (NCI-H23, NCI-H460, NCI-H596, NCI-H2170, Calu-6 and A549), two colon cancer cell lines (HCT116 and SW460), one breast cancer cell line MDA-MB-231, one gastric cancer cell line NCI-N87, one prostate cancer cell line DU145, one cervical cancer cell line Hela, and one glioblastoma cell line T98G were obtained from ATCC. The T2 HCC cell line was derived from a mouse liver cancer model initiated by a transgene of MYC. All cell lines were cultured in DMEM (Gibco, Cleveland, TN, USA) supplemented with 5% fetal bovine serum (Gibco), penicillin (100 U/mL)—streptomycin (100 μg/mL) (Gibco, Cat. No. 15140-122), 2 mM L-glutamine (Gibco, 200 mM solution, Cat. No. 25030081), and 1 mM sodium pyruvate (Gibco, 100 mM solution, Cat. No. 11360070) at 37° C. in a humidified incubator that was maintained at 5% CO2.
(§2) We have previously developed a mechanism-informed phenotypic screening assay to identify novel antimitotic agents. Equipped with a prior understanding of the versatile functions of the chromosomal passenger protein (CPP) complex in orchestrating karyokinesis and cytokinesis, the screening assay is to score for phenotypes typically seen when the CPP complex is disabled. Specifically, the parameters for a positive hit are a temporary elevation of mitotic index (MI) at 24 hours of drug treatment and an accumulation of polyploid cells at 48 hours of drug treatment, indicative of mitotic arrest and cytokinetic failure respectively. These parameters exclude compounds that elicit only a prolonged arrest of cells in mitosis, a phenotype typically provoked by spindle toxins. The screening procedure is briefly summarized here. RPEMYC^H2B-GFP cells engineered to express a Histone 2B-EGFP fusion protein were passaged as batches of 96-well plates, 18-24 hours before exposure to the chemical compounds of the present disclosure at concentrations from 1 nM to 30 μM. At 24, 48 or 72 hours after initiation of treatment, cells were analyzed for either an arrest in mitosis or a change in DNA content by GE IN-Cell Analyzer 2000. As set forth in Table 2 below, a value of greater than or equal to 1 nM and less than or equal to 1.0 μM is marked “A”; a value greater than 1.00 μM and less than or equal to 10.0 μM is marked “B”; a value greater than 10.0 μM and less than or equal to 30.0 μM is marked “C”; and a value greater than 30.0 μM is marked “D.”

MDA-MB-231 [2] = test: MECP in cancer cell line; details: Homo sapiens
Description: as §1, §2

A549 [3] = test: MECP in cancer cell line; details: Homo sapiens
Description: as §1, §2

SW480 [4] = test: MECP in cancer cell line; details: Homo sapiens
Description: as §1, §2

T2 HCC [5] = test: MECP in cancer cell line; details: Mus musculus
Description: as §1, §2

Hela [6] = test: MECP in cancer cell line; details: Homo sapiens
Description: as §1, §2

NCI-H23 [7] = test: MECP in cancer cell line; details: Homo sapiens
Description: as §1, with “CO2. […]” for “CO2.”

NCI-N87 [8] = test: MECP in cancer cell line; details: Homo sapiens
Description: as §1, with “CO2. […]” for “CO2.”

HCT116 [9] = test: MTT assay of cellular proliferation; details: Homo sapiens, HCT-116, 50% inhibition of cellular proliferation
Description: as §1
(§3) The MTT assay measures cellular metabolic activity as a proxy for cell viability and involves the conversion of the water-soluble yellow dye MTT [3-(4,5-dimethylthiazol-2-yl)-2,5-diphenyltetrazolium bromide] into an insoluble purple formazan by the action of mitochondrial reductase. Formazan is then solubilized and its concentration is determined by measuring the optical density (OD) value at a wavelength of 570 nm. The value is in proportional to the number of live cells with excellent linearity up to ˜10^6 cells per well. The MTT assay was used to determine the EC50 value, the concentration of a compound that leads to 50% inhibition of cellular proliferation. Briefly, cells were split when growing to the mid-Log phase. Cells in 100 μL of culture medium were seeded into each well of 96-well microplates and cultivated for 15-24 hours to reach a confluence of 20-30% and were then exposed to drugs at concentrations ranging from 1 nM to 30 μM. At the endpoint, 20 μL of a MTT stock solution in DMSO (5 mg/mL) was added to each well that contains 100 μL of DMEM. The microplates were left in the cell culture incubator for 3-4 h before subjected to solubilization and determination of formazan at A570 in a microplate reader (BioTek ELX808iu). […] Therefore, these compounds might hold a broad utility in the treatment of a large variety of human malignancies.

MDA-MB-231 [10] = test: MTT assay of cellular proliferation; details: Homo sapiens; MDA-MB-231, MTT, 50% inhibition of cellular proliferation
Description: as §1, §3

A549 [11] = test: MTT assay of cellular proliferation; details: Homo sapiens, 50% inhibition of cellular proliferation
Description: as §1, §3

NCI-H23 [12] = test: MTT assay of cellular proliferation; details: Homo sapiens, 50% inhibition of cellular proliferation
Description: as §1, §3

SW480 [13] = test: MTT assay of cellular proliferation; details: Homo sapiens, 50% inhibition of cellular proliferation
Description: as §1, §3

T2 HCC [14] = test: MTT assay of cellular proliferation; details: Mus musculus, 50% inhibition of cellular proliferation
Description: as §1, §3

NCI-N87 [15] = test: MTT assay of cellular proliferation; details: Homo sapiens, 50% inhibition of cellular proliferation
Description: as §1, §3

Hela [16] = test: MTT assay of cellular proliferation; details: Homo sapiens, 50% inhibition of cellular proliferation
Description: as §1, §3

RPEMYC^H2B-GFP cells = test: Phenotypic screening assay (mitotic arrest, polyploidy); details: 1 nM to 30 μM; for IC50: read-out: Proliferative arrest (>50%)
Description: as §2

[17] = read-out: Min. Effective conc. for Polyploidy (≥5%)

SMILES | minimal effective concentration (HCT116 [1]) [µM] | minimal effective concentration (MDA-MB-231 [2]) [µM] | minimal effective concentration (A549 [3]) [µM] | minimal effective concentration (SW480 [4]) [µM] | minimal effective concentration (T2 HCC [5]) [µM] | minimal effective concentration (Hela [6]) [µM] | minimal effective concentration (NCI-H23 [7]) [µM] | minimal effective concentration (NCI-N87 [8]) [µM] | EC50 (HCT116 [9]) [nM] | EC50 (MDA-MB-231 [10]) [nM] | EC50 (A549 [11]) [nM] | EC50 (NCI-H23 [12]) [nM] | EC50 (SW480 [13]) [nM] | EC50 (T2 HCC [14]) [nM] | EC50 (NCI-N87 [15]) [nM] | EC50 (Hela [16]) [nM] | minimal effective concentration (RPEMYC^H2B-GFP cells; [17]) [µM] | minimal effective concentration (RPEMYC^H2B-GFP cells; read-out: Mitotic Arrest (≥5%)) [µM] | IC50 (RPEMYC^H2B-GFP cells) [nM] | further results
COc1cc(Oc2ccnc3ccccc23)cc(-n2cccn2)c1 [Compound 12, 4-(3-methoxy-5-(1H-pyrazol-1-yl)phenoxy)quinoline] | 0.001 to 1 | 0.001 to 1 | 0.001 to 1 | 0.001 to 1 | 0.001 to 1 | 0.001 to 1 | 0.001 to 1 | 0.001 to 1 | 1 to 1000 | 1 to 1000 | 1 to 1000 | 1 to 1000 | 1 to 1000 | 1 to 1000 | 1 to 1000 | 1 to 1000 | 0.001 to 1 | 0.001 to 1 | 1 to 1000 | 
COc1cc(NC(C)=O)cc(Oc2ccnc3ccccc23)c1 [Compound 14, N-(3-methoxy-5-(quinolin-4-yloxy)phenyl)acetamide] | 0.001 to 1 | 0.001 to 1 | 0.001 to 1 | 0.001 to 1 | 0.001 to 1 | 0.001 to 1 | 0.001 to 1 | 0.001 to 1 | 1 to 1000 | 1 to 1000 | 1 to 1000 | 1 to 1000 | 1 to 1000 | 1 to 1000 | 1 to 1000 | 1 to 1000 | 0.001 to 1 | 0.001 to 1 | 1 to 1000 | 
COc1cc(Oc2ccnc3ccc(OC)cc23)cc(-n2cccn2)c1 [Compound 17, 6-methoxy-4(3-methoxy-5-(1H-pyrazol-1-yl)phenoxy)quinoline] | 0.001 to 1 | 0.001 to 1 | 0.001 to 1 | 0.001 to 1 | 0.001 to 1 | 0.001 to 1 | 0.001 to 1 | 0.001 to 1 | 1 to 1000 | 1 to 1000 | 1 to 1000 | 1 to 1000 | 1 to 1000 | 1 to 1000 | 1 to 1000 | 1 to 1000 | 0.001 to 1 | 0.001 to 1 | 1 to 1000 | Min. Effective conc. for Polyploidy (≥5%) (RPEMYC^H2B-GFP cells): B (a value greater than 1.00 μM and less than or equal to 10.0 μM); Mitotic Arrest (≥5%) (RPEMYC^H2B-GFP cells): B (a value greater than 1.00 μM and less than or equal to 10.0 μM); Proliferative arrest (>50%) (RPEMYC^H2B-GFP cells): B (a value greater than 1.00 μM and less than or equal to 10.0 μM); Along with Cell Death (RPEMYC^H2B-GFP cells; listed as 16): B (a value greater than 1.00 μM and less than or equal to 10.0 μM)
COc1cc(NC(C)=O)cc(Oc2ccnc3ccc(OC)cc23)c1 [Compound 18, N-(3-methoxy-5-((6-methoxyquinolin-4-yl)oxy)phenyl)acetamide] | 0.001 to 1 | 0.001 to 1 | 0.001 to 1 | 0.001 to 1 | 0.001 to 1 | 0.001 to 1 | 0.001 to 1 | 0.001 to 1 | 1 to 1000 | 1 to 1000 | 1 to 1000 | 1 to 1000 | 1 to 1000 | 1 to 1000 | 1 to 1000 | 1 to 1000 | 0.001 to 1 | 0.001 to 1 | 1 to 1000 | 
COc1cc(Oc2ccnc3ccc(Br)cc23)cc(OC2CCOC2)c1 (stereo not shown) [Compound 92, 6-bromo-4-(3-methoxy-5-((tetrahydrofuran-3-yl)oxy)phenoxy)quinoline] |  |  |  |  |  |  |  |  |  |  |  |  |  |  |  |  | 0.001 to 1 | 0.001 to 1 |  | 
COc1cc(Oc2ccnc3ccc(Br)cc23)cc([N+](=O)[O-])c1 [Compound 93, 4-(3-methoxy-5-nitrophenoxy)-6-bromoquinone] |  |  |  |  |  |  |  |  |  |  |  |  |  |  |  |  | 0.001 to 1 | 0.001 to 1 |  | 
COc1cc(Oc2cc(C)nc3ccccc23)cc(-n2cccn2)c1 [Compound 96, 4-(3-methoxy-5-(1H-pyrazol-1-yl)phenoxy)-2-methylquinoline] |  |  |  |  |  |  |  |  |  |  |  |  |  |  |  |  | 0.001 to 1 | 0.001 to 1 |  | 
COc1cc(Oc2cc(Cl)nc3ccc(Br)cc23)cc([N+](=O)[O-])c1 [Compound 97, 4-(3-methoxy-5-nitrophenoxy)-6-bromo-2-chloroquinoline] |  |  |  |  |  |  |  |  |  |  |  |  |  |  |  |  | > 30 | > 30 |  | 
[2H]c1cc(Oc2cc(OC)cc([N+](=O)[O-])c2)c2cc(Br)ccc2n1 [Compound 98] |  |  |  |  |  |  |  |  |  |  |  |  |  |  |  |  | 1 to 10 | 1 to 10 |  | 
COC(=O)c1cc(OC)cc(Oc2ncnc3cc(OC)c(OC)cc23)c1 [Example 24, methyl 3-((6,7-dimethoxyquinazolin-4-yl)oxy)-5-methoxybenzoate] |  |  |  |  |  |  |  |  |  |  |  |  |  |  |  |  |  |  |  | Along with Cell Death (RPEMYC^H2B-GFP cells): C (a value greater than 10.0 μM and less than or equal to 30.0 μM); Min. Effective conc. for Polyploidy (≥5%) (RPEMYC^H2B-GFP cells): C (a value greater than 10.0 μM and less than or equal to 30.0 μM); Mitotic Arrest (≥5%) (RPEMYC^H2B-GFP cells): C (a value greater than 10.0 μM and less than or equal to 30.0 μM); Proliferative arrest (>50%) (RPEMYC^H2B-GFP cells): C (a value greater than 10.0 μM and less than or equal to 30.0 μM)
